Source: the NIST ThermoML archive (doi:10.1016/j.jct.2004.09.021)

Key:
[1] = refractive index (Na D-line) (dimensionless); xn = mol fraction of the nth substance listed; details: 101 kPa, Liquid
[2] = xn = mol fraction of the nth substance listed; details: 101 kPa, Liquid

COc1ccccc1 [anisole] + CCCCCCCC
Details	mass density, 293.15 K [kg/m3]	mass density, 298.15 K [kg/m3]	mass density, 303.15 K [kg/m3]	refractive index, 293.15 K	refractive index, 298.15 K	refractive index, 303.15 K	viscosity, 293.15 K [mPa·s]	viscosity, 298.15 K [mPa·s]	viscosity, 303.15 K [mPa·s]
[1], x1 = 0.106	–	–	–	1.405	1.4029	1.4004	–	–	–
[1], x1 = 0.231	–	–	–	1.4158	1.4136	1.4114	–	–	–
[1], x1 = 0.307	–	–	–	1.423	1.4208	1.4187	–	–	–
[1], x1 = 0.3991	–	–	–	1.4324	1.4303	1.4283	–	–	–
[1], x1 = 0.503	–	–	–	1.444	1.4419	1.44	–	–	–
[1], x1 = 0.6	–	–	–	1.4562	1.454	1.4522	–	–	–
[1], x1 = 0.69	–	–	–	1.4683	1.4661	1.4643	–	–	–
[1], x1 = 0.796	–	–	–	1.4838	1.4815	1.4797	–	–	–
[1], x1 = 0.8822	–	–	–	1.4973	1.495	1.4933	–	–	–
[1], x1 = 1	–	–	–	1.5161	1.5141	1.5129	–	–	–
[2], x1 = 0.1031	722.82	718.75	714.63	–	–	–	0.5523	0.5195	0.4917
[2], x1 = 0.2253	749.02	744.78	740.6	–	–	–	0.568	0.5349	0.5042
[2], x1 = 0.3001	766.32	762.01	757.77	–	–	–	0.5825	0.5446	0.5166
[2], x1 = 0.4	791.02	786.68	782.37	–	–	–	0.6136	0.5719	0.5434
[2], x1 = 0.5092	820.49	816.09	811.7	–	–	–	0.6541	0.6157	0.5779
[2], x1 = 0.5998	847.08	842.65	838.17	–	–	–	0.7026	0.6542	0.6162
[2], x1 = 0.6977	878.22	873.72	869.19	–	–	–	0.7639	0.7153	0.6729
[2], x1 = 0.7998	913.74	909.15	904.54	–	–	–	0.8456	0.7845	0.7453
[2], x1 = 0.8975	950.96	946.32	941.63	–	–	–	0.9497	0.8917	0.8289
[2], x1 = 1	993.81	989.15	984.42	–	–	–	1.085	1.017	0.9285

COc1ccccc1 [anisole] + CCCCCCCCC
Details	mass density, 293.15 K [kg/m3]	mass density, 298.15 K [kg/m3]	mass density, 303.15 K [kg/m3]	refractive index, 293.15 K	refractive index, 298.15 K	refractive index, 303.15 K	viscosity, 293.15 K [mPa·s]	viscosity, 298.15 K [mPa·s]	viscosity, 303.15 K [mPa·s]
[1], x1 = 0.116	–	–	–	1.4119	1.4103	1.4074	–	–	–
[1], x1 = 0.218	–	–	–	1.4191	1.4173	1.4148	–	–	–
[1], x1 = 0.32	–	–	–	1.4276	1.4257	1.4234	–	–	–
[1], x1 = 0.413	–	–	–	1.4361	1.4343	1.432	–	–	–
[1], x1 = 0.4989	–	–	–	1.4448	1.443	1.4409	–	–	–
[1], x1 = 0.5907	–	–	–	1.4553	1.4534	1.4515	–	–	–
[1], x1 = 0.673	–	–	–	1.466	1.4639	1.4619	–	–	–
[1], x1 = 0.782	–	–	–	1.4811	1.4789	1.4771	–	–	–
[1], x1 = 0.8965	–	–	–	1.4984	1.4961	1.4944	–	–	–
[1], x1 = 1	–	–	–	1.5161	1.5141	1.5129	–	–	–
[2], x1 = 0.1003	737.55	730.48	726.35	–	–	–	0.7027	0.6663	0.6209
[2], x1 = 0.1991	752.72	748.56	744.37	–	–	–	0.6975	0.6588	0.6172
[2], x1 = 0.2995	776.9	768.71	764.41	–	–	–	0.7043	0.662	0.6139
[2], x1 = 0.3997	795.17	790.9	786.51	–	–	–	0.7127	0.6693	0.6315
[2], x1 = 0.4998	819.75	815.37	810.88	–	–	–	0.7381	0.6982	0.6485
[2], x1 = 0.5907	844.35	839.87	835.33	–	–	–	0.7718	0.7299	0.6758
[2], x1 = 0.6975	876.64	872.08	867.39	–	–	–	0.8298	0.7801	0.7158
[2], x1 = 0.8008	911.95	907.24	902.38	–	–	–	0.9049	0.8452	0.7771
[2], x1 = 0.898	949.42	944.51	939.7	–	–	–	0.9871	0.9159	0.8365
[2], x1 = 1	993.81	989.15	984.42	–	–	–	1.085	1.017	0.9285

COc1ccccc1 [anisole] + CCCCCCCCCC
Details	mass density, 293.15 K [kg/m3]	mass density, 298.15 K [kg/m3]	mass density, 303.15 K [kg/m3]	refractive index, 293.15 K	refractive index, 298.15 K	refractive index, 303.15 K	viscosity, 293.15 K [mPa·s]	viscosity, 298.15 K [mPa·s]	viscosity, 303.15 K [mPa·s]
[1], x1 = 0.1071	–	–	–	1.4198	1.4165	1.4131	–	–	–
[1], x1 = 0.1979	–	–	–	1.425	1.4218	1.4186	–	–	–
[1], x1 = 0.31	–	–	–	1.4328	1.4297	1.4269	–	–	–
[1], x1 = 0.409	–	–	–	1.4405	1.4374	1.4349	–	–	–
[1], x1 = 0.508	–	–	–	1.4495	1.4467	1.4443	–	–	–
[1], x1 = 0.6	–	–	–	1.4591	1.4563	1.4541	–	–	–
[1], x1 = 0.686	–	–	–	1.4694	1.4667	1.4645	–	–	–
[1], x1 = 0.789	–	–	–	1.4831	1.4803	1.4784	–	–	–
[1], x1 = 0.887	–	–	–	1.4973	1.4947	1.4927	–	–	–
[1], x1 = 1	–	–	–	1.5161	1.5141	1.5129	–	–	–
[2], x1 = 0.0846	742.22	738.35	734.48	–	–	–	0.8966	0.8362	0.7797
[2], x1 = 0.173	756.19	752.25	748.48	–	–	–	0.8837	0.8195	0.7679
[2], x1 = 0.2574	770.86	766.87	763.13	–	–	–	0.865	0.8019	0.7542
[2], x1 = 0.3675	792.19	788.11	784.45	–	–	–	0.8512	0.7887	0.7392
[2], x1 = 0.4546	811.1	806.89	803.36	–	–	–	0.8492	0.7883	0.7322
[2], x1 = 0.5661	838.25	833.93	830.59	–	–	–	0.8679	0.801	0.7387
[2], x1 = 0.6583	863.76	859.36	856.21	–	–	–	0.8896	0.8198	0.7585
[2], x1 = 0.7725	900.09	895.52	892.66	–	–	–	0.9343	0.8683	0.799
[2], x1 = 0.8798	940.35	935.67	933.11	–	–	–	0.9984	0.9296	0.8558
[2], x1 = 1	993.81	989.15	984.42	–	–	–	1.085	1.017	0.9285
